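48-hour exposure; five concentrations; linearly interpolated endpoints. GI50: concentration for 50% inhibition of growth. TGI marks complete inhibition of growth.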
Key:
Assay in all cases: NCI tumour cell line growth inhibition, 48 h
HL-60(TB) leukemia = test system: HL-60(TB) leukemia
SK-MEL-2 melanoma = test system: SK-MEL-2 melanoma
SK-OV-3 ovarian = test system: SK-OV-3 ovarian
NCI-H23 lung = test system: NCI-H23 lung
COLO 205 colon = test system: COLO 205 colon
OVCAR-8 ovarian = test system: OVCAR-8 ovarian
OVCAR-3 ovarian = test system: OVCAR-3 ovarian
RPMI-8226 leukemia = test system: RPMI-8226 leukemia
M14 melanoma = test system: M14 melanoma
EKVX NSCLC = test system: EKVX NSCLC

COc1ccc(-c2nc3sc4c(c3c(=O)[nH]2)CCCCCC4)cc1
GI50 (HL-60(TB) leukemia): 0.874 µM
TGI (HL-60(TB) leukemia): > 33.2 µM
GI50 (SK-MEL-2 melanoma): 2.83 µM
TGI (SK-MEL-2 melanoma): 23.5 µM
GI50 (SK-OV-3 ovarian): 1.6 µM
TGI (SK-OV-3 ovarian): > 33.2 µM
GI50 (NCI-H23 lung): > 33.2 µM
TGI (NCI-H23 lung): > 33.2 µM
GI50 (COLO 205 colon): 2.37 µM
TGI (COLO 205 colon): > 33.2 µM
GI50 (OVCAR-8 ovarian): 3.9 µM
TGI (OVCAR-8 ovarian): > 33.2 µM
GI50 (OVCAR-3 ovarian): 1.91 µM
TGI (OVCAR-3 ovarian): > 33.2 µM
GI50 (RPMI-8226 leukemia): > 33.2 µM
TGI (RPMI-8226 leukemia): > 33.2 µM
GI50 (M14 melanoma): 1.48 µM
TGI (M14 melanoma): > 33.2 µM

C[C@@H]1C[C@H]2CC[C@H](O2)[C@H](C)C(=O)O[C@@H](C)C[C@@H]2CC[C@@H](O2)[C@@H](C)C(=O)O[C@H](C)C[C@H]2CC[C@H](O2)[C@H](C)C(=O)O[C@@H](C)C[C@@H]2CC[C@@H](O2)[C@@H](C)C(=O)O1
TGI (HL-60(TB) leukemia): 0.536 µM
TGI (SK-MEL-2 melanoma): 3.34 µM
TGI (SK-OV-3 ovarian): 0.567 µM
TGI (COLO 205 colon): 0.33 µM
TGI (OVCAR-8 ovarian): > 44.6 µM
TGI (OVCAR-3 ovarian): > 40.1 µM
TGI (M14 melanoma): > 85 µM
TGI (EKVX NSCLC): > 100 µM

COc1ccc(-c2csc(N(C(=O)N3CCN(c4cc5c(cc4F)c(=O)c(C(=O)O)cn5C4CC4)CC3)c3ccccc3)n2)cc1
GI50 (HL-60(TB) leukemia): 2.34 µM
TGI (HL-60(TB) leukemia): 5.94 µM
GI50 (SK-MEL-2 melanoma): 2.2 µM
TGI (SK-MEL-2 melanoma): 5.22 µM
GI50 (SK-OV-3 ovarian): 2.49 µM
TGI (SK-OV-3 ovarian): 7.83 µM
GI50 (NCI-H23 lung): 2.96 µM
TGI (NCI-H23 lung): 18.4 µM
GI50 (COLO 205 colon): 3 µM
TGI (COLO 205 colon): 9.22 µM
GI50 (OVCAR-8 ovarian): 2.82 µM
TGI (OVCAR-8 ovarian): > 100 µM
GI50 (M14 melanoma): 3.7 µM
TGI (M14 melanoma): > 100 µM
GI50 (EKVX NSCLC): 3.3 µM
TGI (EKVX NSCLC): > 100 µM

COc1ccc2sc3c(NCCCN(C)C)nc4ccccc4c3c(=O)c2c1
GI50 (HL-60(TB) leukemia): 1.88 µM
TGI (HL-60(TB) leukemia): 3.91 µM
GI50 (SK-MEL-2 melanoma): 1.76 µM
TGI (SK-MEL-2 melanoma): 3.32 µM
GI50 (NCI-H23 lung): 1.59 µM
TGI (NCI-H23 lung): 3.06 µM
GI50 (COLO 205 colon): 1.58 µM
TGI (COLO 205 colon): 3.52 µM
GI50 (OVCAR-8 ovarian): 1.7 µM
TGI (OVCAR-8 ovarian): 3.62 µM
GI50 (OVCAR-3 ovarian): 1.78 µM
TGI (OVCAR-3 ovarian): 3.27 µM
GI50 (RPMI-8226 leukemia): 1.68 µM
TGI (RPMI-8226 leukemia): 3.66 µM
GI50 (M14 melanoma): 1.78 µM
TGI (M14 melanoma): 3.33 µM
GI50 (EKVX NSCLC): 1.51 µM
TGI (EKVX NSCLC): 2.93 µM

CC(CCC(=O)O)[C@H]1CCC2[C@@H]3CC[C@@H]4CC(O)CC[C@]4(C)C3CC[C@@]21C (some centres undefined)
GI50 (HL-60(TB) leukemia): 52.3 µM
TGI (HL-60(TB) leukemia): > 100 µM
GI50 (SK-MEL-2 melanoma): 28.5 µM
TGI (SK-MEL-2 melanoma): 87.1 µM
GI50 (NCI-H23 lung): 15.6 µM
TGI (NCI-H23 lung): 37.9 µM
GI50 (COLO 205 colon): 23.7 µM
TGI (COLO 205 colon): 53.1 µM
GI50 (OVCAR-8 ovarian): 50 µM
TGI (OVCAR-8 ovarian): > 100 µM
GI50 (RPMI-8226 leukemia): 23.6 µM
TGI (RPMI-8226 leukemia): 57.1 µM
GI50 (M14 melanoma): 30.4 µM
TGI (M14 melanoma): 97.8 µM
GI50 (EKVX NSCLC): 44.4 µM
TGI (EKVX NSCLC): > 100 µM

CCOC(=O)c1cc(NS(=O)(=O)c2ccccc2)cc(C(=O)OCC)c1
GI50 (HL-60(TB) leukemia): > 100 µM
TGI (HL-60(TB) leukemia): > 100 µM
GI50 (SK-MEL-2 melanoma): > 100 µM
TGI (SK-MEL-2 melanoma): > 100 µM
GI50 (SK-OV-3 ovarian): > 100 µM
TGI (SK-OV-3 ovarian): > 100 µM
GI50 (NCI-H23 lung): > 100 µM
TGI (NCI-H23 lung): > 100 µM
GI50 (COLO 205 colon): > 100 µM
TGI (COLO 205 colon): > 100 µM
GI50 (OVCAR-3 ovarian): > 100 µM
TGI (OVCAR-3 ovarian): > 100 µM
GI50 (RPMI-8226 leukemia): > 100 µM
TGI (RPMI-8226 leukemia): > 100 µM
GI50 (EKVX NSCLC): > 100 µM
TGI (EKVX NSCLC): > 100 µM

C#CCOCn1cnc2c(Cl)ncnc21
TGI (SK-MEL-2 melanoma): > 100 µM
TGI (SK-OV-3 ovarian): > 100 µM
TGI (NCI-H23 lung): > 100 µM
TGI (COLO 205 colon): > 100 µM
TGI (OVCAR-8 ovarian): > 100 µM
TGI (OVCAR-3 ovarian): > 100 µM
TGI (RPMI-8226 leukemia): > 100 µM
TGI (M14 melanoma): > 100 µM
TGI (EKVX NSCLC): > 100 µM

CC1=C(C)C(=O)c2c(cc3ccccn23)C1=O
TGI (HL-60(TB) leukemia): 43.2 µM
TGI (SK-OV-3 ovarian): 63.6 µM
TGI (NCI-H23 lung): 23.3 µM
TGI (COLO 205 colon): 34.5 µM
TGI (OVCAR-8 ovarian): 61.1 µM
TGI (OVCAR-3 ovarian): 29.2 µM
TGI (RPMI-8226 leukemia): 65.9 µM
TGI (M14 melanoma): 28.1 µM
TGI (EKVX NSCLC): 46.4 µM

COc1ccc(-c2n/c(=C\c3c(O)[nH]c4ccc(OC)cc34)cc3c2=Nc2ccccc2-3)cc1
GI50 (HL-60(TB) leukemia): 10.3 µM
TGI (HL-60(TB) leukemia): 32.5 µM
GI50 (SK-OV-3 ovarian): 22.5 µM
TGI (SK-OV-3 ovarian): 46.6 µM
GI50 (NCI-H23 lung): 1.89 µM
TGI (NCI-H23 lung): 3.97 µM
GI50 (COLO 205 colon): 10.7 µM
TGI (COLO 205 colon): 56.8 µM
GI50 (RPMI-8226 leukemia): 3.21 µM
TGI (RPMI-8226 leukemia): 37.3 µM
GI50 (M14 melanoma): 1.98 µM
TGI (M14 melanoma): 3.59 µM
GI50 (EKVX NSCLC): 21.2 µM
TGI (EKVX NSCLC): 72.9 µM

O=[N+]([O-])C1C2C=CC(C2)[C@H]1c1ccco1 (some centres undefined)
TGI (HL-60(TB) leukemia): > 100 µM
TGI (SK-MEL-2 melanoma): > 100 µM
TGI (SK-OV-3 ovarian): > 100 µM
TGI (NCI-H23 lung): 2.36 µM
TGI (COLO 205 colon): > 100 µM
TGI (OVCAR-8 ovarian): > 100 µM
TGI (OVCAR-3 ovarian): > 100 µM
TGI (M14 melanoma): > 100 µM
TGI (EKVX NSCLC): > 100 µM

N#Cc1c(N2CCCC2)[nH]c(=O)c(C(c2c(Cl)cccc2Cl)c2c(O)c(C#N)c(N3CCCC3)[nH]c2=O)c1O
GI50 (SK-MEL-2 melanoma): 16.6 µM
TGI (SK-MEL-2 melanoma): 45.4 µM
GI50 (SK-OV-3 ovarian): 0.0847 µM
TGI (SK-OV-3 ovarian): 21 µM
GI50 (NCI-H23 lung): 11.6 µM
TGI (NCI-H23 lung): 31 µM
GI50 (COLO 205 colon): 5.11 µM
TGI (COLO 205 colon): 17.4 µM
GI50 (OVCAR-8 ovarian): 15.8 µM
TGI (OVCAR-8 ovarian): 33.1 µM
GI50 (OVCAR-3 ovarian): 3.33 µM
TGI (OVCAR-3 ovarian): 14.3 µM
GI50 (RPMI-8226 leukemia): 2.54 µM
TGI (RPMI-8226 leukemia): 18.4 µM
GI50 (M14 melanoma): 11.4 µM
TGI (M14 melanoma): 24 µM
GI50 (EKVX NSCLC): 0.0367 µM
TGI (EKVX NSCLC): 17.1 µM

CCCCCCCCCCCC(=O)OCC1OC(n2cc(F)c(=O)[nH]c2=O)C(NC(=O)OCc2ccccc2)C(OC(=O)CCCCCCCCCCC)C1O (centres undefined)
TGI (SK-MEL-2 melanoma): > 100 µM
TGI (SK-OV-3 ovarian): > 100 µM
TGI (NCI-H23 lung): > 100 µM
TGI (COLO 205 colon): > 100 µM
TGI (OVCAR-8 ovarian): > 100 µM
TGI (OVCAR-3 ovarian): > 100 µM
TGI (RPMI-8226 leukemia): > 100 µM
TGI (M14 melanoma): > 100 µM
TGI (EKVX NSCLC): > 100 µM

Cc1cc(N(CCC#N)CCC#N)ccc1N=Nc1cccc(C(=O)O)c1
TGI (HL-60(TB) leukemia): > 100 µM
TGI (SK-MEL-2 melanoma): > 100 µM
TGI (SK-OV-3 ovarian): > 100 µM
TGI (NCI-H23 lung): > 100 µM
TGI (COLO 205 colon): > 100 µM
TGI (OVCAR-8 ovarian): > 100 µM
TGI (OVCAR-3 ovarian): > 100 µM
TGI (M14 melanoma): > 100 µM
TGI (EKVX NSCLC): > 100 µM

CCCNC1=C(C(=O)OCC)C(=O)CO1
TGI (HL-60(TB) leukemia): > 100 µM
TGI (SK-MEL-2 melanoma): > 100 µM
TGI (NCI-H23 lung): > 100 µM
TGI (OVCAR-8 ovarian): > 100 µM
TGI (OVCAR-3 ovarian): > 100 µM
TGI (RPMI-8226 leukemia): > 100 µM
TGI (M14 melanoma): > 100 µM
TGI (EKVX NSCLC): > 100 µM

Cn1cc(-c2ccc3occ(-c4cccc(-c5ccncc5)c4)c3n2)cn1
GI50 (SK-MEL-2 melanoma): 0.758 µM
TGI (SK-MEL-2 melanoma): > 100 µM
GI50 (SK-OV-3 ovarian): 1.82 µM
TGI (SK-OV-3 ovarian): > 100 µM
GI50 (NCI-H23 lung): 1.26 µM
TGI (NCI-H23 lung): > 100 µM
GI50 (COLO 205 colon): 0.546 µM
TGI (COLO 205 colon): > 100 µM
GI50 (OVCAR-8 ovarian): 1.31 µM
TGI (OVCAR-8 ovarian): > 100 µM
GI50 (OVCAR-3 ovarian): 0.479 µM
TGI (OVCAR-3 ovarian): > 100 µM
GI50 (M14 melanoma): 0.457 µM
TGI (M14 melanoma): > 100 µM
GI50 (EKVX NSCLC): 1.25 µM
TGI (EKVX NSCLC): > 100 µM

CCCCC(CC)CN=C(N)NC(N)=NCCCCCCN=C(N)NC(N)=NCC(CC)CCCC (centres undefined)
GI50 (HL-60(TB) leukemia): 2.07 µM
TGI (HL-60(TB) leukemia): 3.97 µM
GI50 (SK-OV-3 ovarian): 2.64 µM
TGI (SK-OV-3 ovarian): 6.86 µM
GI50 (COLO 205 colon): 1.82 µM
TGI (COLO 205 colon): 3.31 µM
GI50 (OVCAR-8 ovarian): 2.08 µM
TGI (OVCAR-8 ovarian): 5.19 µM
GI50 (M14 melanoma): 2.49 µM
TGI (M14 melanoma): 6.03 µM
GI50 (EKVX NSCLC): 1.74 µM
TGI (EKVX NSCLC): 4.73 µM

COc1ccc(OC)c(NC(=O)C2=C(C)NC(C)=C(C(=O)Nc3cc(OC)ccc3OC)C2c2ccccc2)c1
TGI (SK-MEL-2 melanoma): > 100 µM
TGI (SK-OV-3 ovarian): > 100 µM
TGI (NCI-H23 lung): > 100 µM
TGI (COLO 205 colon): > 100 µM
TGI (OVCAR-8 ovarian): > 100 µM
TGI (OVCAR-3 ovarian): > 100 µM
TGI (RPMI-8226 leukemia): > 100 µM
TGI (M14 melanoma): > 100 µM
TGI (EKVX NSCLC): > 100 µM

— PubChem BioAssay (NCI)
